Measured values as given in article PMC13427755 (Nature Communications, 2026).
Where two headings read alike, the source gives them in different places. Where a SMILES comes first, the peptide text is derived from it.

How the values were obtained:
participants with IPF [1] = test system: participants with IPF; set-up: species or system human; conditions: in vivo
Protocol: Safety and tolerability assessments were performed through treatment and follow-up and included evaluation of TEAEs, concomitant medications, physical examinations, vital signs, 12-lead ECGs, clinical laboratory assessments, spirometry, and cough symptoms using the validated LCQ[22] and a cough VAS. Spirometry was performed according to American Thoracic Society (ATS) / European Respiratory Society (ERS) Task Force guidelines[46] at all clinic visits, with assessments conducted both pre-and post-dose on study drug dosing days. Study staff monitored participants’ self-administration of the study drug (the morning dose) during on-site visits, and symptoms were monitored for at least 1h. […]
Exploratory biomarkers will be assessed in peripheral blood cells (as feasible), platelet rich plasma, BALF, BA samples, and deep bronchial brushings as outlined in Table 3. […]
LCQ total score is equal to the sum of the domain scores (total score range from 3 to 21) with a lower score indicating greater impairment of health status due to cough . […] If a response is not provided to a question, the domain score will be calculated as the average of the scores to the answered questions within the domain. If a subject responds to less than 80% of questions in a domain, the LCQ domain score will not be calculated and will be treated as missing during analysis. […]

participants with IPF [2] = format: in vivo, human
Protocol: This was a Phase 1b, randomized, double-blind, placebo-controlled, dose escalation study conducted at 6 sites in the United States, United Kingdom, Germany, and Australia (ClinicalTrials.gov: NCT05954988).
The full study protocol and statistical analysis plan are provided as Supplementary Notes 1 and 2, respectively. The completed CONSORT checklist for reporting of this study is provided as Supplementary Note 3.
Randomization was performed by interactive response system. Participants, study staff, and sponsor personnel were blinded to treatment assignment throughout the study.
Safety and tolerability assessments were performed through treatment and follow-up and included evaluation of TEAEs, concomitant medications, physical examinations, vital signs, 12-lead ECGs, clinical laboratory assessments, spirometry, and cough symptoms using the validated LCQ[22] and a cough VAS. Spirometry was performed according to American Thoracic Society (ATS) / European Respiratory Society (ERS) Task Force guidelines[46] at all clinic visits, with assessments conducted both pre-and post-dose on study drug dosing days. Study staff monitored participants’ self-administration of the study drug (the morning dose) during on-site visits, and symptoms were monitored for at least 1h.
The primary endpoint was the incidence of TEAEs reported from Day 1 through follow-up. TEAEs were coded using MedDRA (Version 26.1) and graded using the National Cancer Institute Common Terminology for Adverse Events (CTCAE) Version 5. Safety analyses included all participants who received the study drug. […] Placebo participants in each cohort were pooled for safety and biomarker analyses. No secondary endpoints were specified.

[3] = 5 mg/day (2.5 mg BID) inhaled, 14 days, IPF, N = 9
[4] = 10 mg/day (5 mg BID) inhaled, 14 days, IPF, N = 9

CC(C)[C@H](NC(=O)[C@@H](NC(=O)[C@H](Cc1ccccc1)NC(=O)[C@@H](NC(=O)[C@@H](NC(=O)[C@@H](N)Cc1ccccc1)[C@@H](C)O)[C@@H](C)O)[C@@H](C)O)C(=O)N[C@H](C(=O)O)[C@@H](C)O [LTI-03] (H-FTTFTVT-OH; N-terminus and C-terminus assumed)
change in LCQ total score during the treatment period (participants with IPF [1]): No clinically significant changes
change in cough VAS during the treatment period (participants with IPF [1]): No clinically significant changes
TEAE: Back pain (participants with IPF [2]; [3]): 1 (11.1) n (%)
TEAE: Body temperature increased (participants with IPF [2]; [3]): 1 (11.1) n (%)
TEAE: COVID-19 (participants with IPF [2]; [3]): 1 (11.1) n (%)
TEAE: Chest discomfort (participants with IPF [2]; [3]): 1 (11.1) n (%)
TEAE: Dysgeusia (participants with IPF [2]; [3]): 1 (11.1) n (%)
TEAE: Dyspnea, exertional (participants with IPF [2]; [3]): 1 (11.1) n (%)
TEAE: Fatigue (participants with IPF [2]; [3]): 1 (11.1) n (%)
TEAE: Hyperkaliemia (participants with IPF [2]; [3]): 1 (11.1) n (%)
TEAE: Ophthalmic migraine (participants with IPF [2]; [3]): 1 (11.1) n (%)
TEAE: Rhinorrhea (participants with IPF [2]; [3]): 1 (11.1) n (%)
TEAEs Grade 2 (participants with IPF [2]; 5 mg/day (2.5 mg BID) inhaled, 14 days, IPF, N = 9, CTCAE v5): 1 (11.1) n (%)
Serious TEAEs (participants with IPF [2]; [4]): 1 (11.1) n (%)
TEAE related to study drug: Dry Mouth (participants with IPF [2]; [4]): 1 (11.1) n (%)
TEAE related to study drug: Hypoesthesia oral (participants with IPF [2]; [4]): 1 (11.1) n (%)
TEAE related to study drug: Palpitations (participants with IPF [2]; [4]): 1 (11.1) n (%)
TEAE related to study drug: Throat Irritation (participants with IPF [2]; [4]): 1 (11.1) n (%)
TEAE: COVID-19 (participants with IPF [2]; [4]): 0 n (%)
TEAE: Cold sweat (participants with IPF [2]; [4]): 1 (11.1) n (%)
TEAE: Dry mouth (participants with IPF [2]; [4]): 1 (11.1) n (%)
TEAE: Hypoesthesia oral (participants with IPF [2]; [4]): 1 (11.1) n (%)
TEAE: Nasopharyngitis (participants with IPF [2]; [4]): 1 (11.1) n (%)
TEAE: Palpitations (participants with IPF [2]; [4]): 1 (11.1) n (%)
TEAE: Productive cough (participants with IPF [2]; [4]): 1 (11.1) n (%)
TEAE: Rhinorrhea (participants with IPF [2]; [4]): 1 (11.1) n (%)
TEAE: Throat irritation (participants with IPF [2]; [4]): 1 (11.1) n (%)
TEAE: Vertigo (participants with IPF [2]; [4]): 1 (11.1) n (%)
TEAE: Post procedural fever (participants with IPF [2]; 10 mg/day (5 mg BID) inhaled, 14 days, IPF, N = 9, serious, Grade 2, unrelated): 1 (11.1) n (%)
participants with TEAE cough (participants with IPF [2]; in vivo): 44%
TEAE: COVID-19 (participants with IPF [2]; pooled 5 and 10 mg/day inhaled, 14 days, IPF, N = 18): 1 (5.6) n (%)
